Experimental data reported in ChEMBL document CHEMBL4196016, “Regioselective synthesis of 7-O-esters of the flavonolignan silibinin and SARs lead to compounds with overadditive neuroprotective effects” (Eur J Med Chem, 2018).
Activity calls are given as the source filed them. The rule behind the calls is not given here.

Columns and labels:
[1] = Antioxidant activity assessed as ferric ion reduction by measuring FeSO4 equivalents reducing Fe3+-TPTZ to Fe2+-TPTZ measured every 15 secs for 4 mins by FRAP assay; type: functional
[2] = Antioxidant activity assessed as reduction of Fe3+-TPTZ to Fe2+-TPTZ measured every 15 secs for 4 mins by FRAP assay; type: functional
HT-22 [3] = test: Neuroprotective activity against glutamate-induced mouse HT22 cells assessed as increase in cell survival at 10 uM cotreated with glutamate measured after 24 hrs by MTT assay; type: functional, cell-based
HT-22 [4] = test: Neuroprotective activity against glutamate-induced mouse HT22 cells assessed as increase in cell survival at 25 uM cotreated with glutamate measured after 24 hrs by MTT assay; type: functional, cell-based
[5] = target: T1, Amyloid-beta precursor protein (Homo sapiens, UniProt P05067); test: Inhibition of amyloid beta 42 (unknown origin) expressed in Escherichia coli BL21 (DE3) aggregation incubated for overnight by Th-S fluorescence staining based UV-Vis spectrophotometer
T1 sequence (P05067 whole entry): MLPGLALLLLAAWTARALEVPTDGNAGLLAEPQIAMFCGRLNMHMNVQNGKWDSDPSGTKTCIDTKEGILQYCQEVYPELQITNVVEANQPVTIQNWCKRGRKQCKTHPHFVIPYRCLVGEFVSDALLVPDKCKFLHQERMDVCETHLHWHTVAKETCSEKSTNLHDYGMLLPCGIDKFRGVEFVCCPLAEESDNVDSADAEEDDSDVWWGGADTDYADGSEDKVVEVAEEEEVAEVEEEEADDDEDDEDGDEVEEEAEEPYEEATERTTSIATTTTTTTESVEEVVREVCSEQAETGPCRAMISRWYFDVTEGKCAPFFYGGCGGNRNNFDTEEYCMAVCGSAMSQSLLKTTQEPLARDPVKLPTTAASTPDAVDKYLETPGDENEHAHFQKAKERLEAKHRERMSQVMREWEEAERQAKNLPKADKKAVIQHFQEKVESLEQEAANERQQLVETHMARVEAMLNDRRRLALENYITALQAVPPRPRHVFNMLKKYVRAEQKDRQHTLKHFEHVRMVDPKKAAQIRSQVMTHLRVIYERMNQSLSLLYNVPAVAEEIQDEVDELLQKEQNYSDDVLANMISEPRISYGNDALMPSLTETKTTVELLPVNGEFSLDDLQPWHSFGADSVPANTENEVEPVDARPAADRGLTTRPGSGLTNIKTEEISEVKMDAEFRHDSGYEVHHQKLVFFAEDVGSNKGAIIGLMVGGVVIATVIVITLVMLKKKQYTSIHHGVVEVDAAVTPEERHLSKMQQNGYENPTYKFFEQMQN

[6] = target: T2, Microtubule-associated protein tau (Homo sapiens, UniProt P10636); test: Inhibition of tau (unknown origin) aggregation expressed in Escherichia coli (DE3) at 100 uM incubated for overnight by Th-S fluorescence staining based UV-Vis spectrophotometer (reference value: 0.0 +/- 2.4%)
T2 sequence (P10636 whole entry): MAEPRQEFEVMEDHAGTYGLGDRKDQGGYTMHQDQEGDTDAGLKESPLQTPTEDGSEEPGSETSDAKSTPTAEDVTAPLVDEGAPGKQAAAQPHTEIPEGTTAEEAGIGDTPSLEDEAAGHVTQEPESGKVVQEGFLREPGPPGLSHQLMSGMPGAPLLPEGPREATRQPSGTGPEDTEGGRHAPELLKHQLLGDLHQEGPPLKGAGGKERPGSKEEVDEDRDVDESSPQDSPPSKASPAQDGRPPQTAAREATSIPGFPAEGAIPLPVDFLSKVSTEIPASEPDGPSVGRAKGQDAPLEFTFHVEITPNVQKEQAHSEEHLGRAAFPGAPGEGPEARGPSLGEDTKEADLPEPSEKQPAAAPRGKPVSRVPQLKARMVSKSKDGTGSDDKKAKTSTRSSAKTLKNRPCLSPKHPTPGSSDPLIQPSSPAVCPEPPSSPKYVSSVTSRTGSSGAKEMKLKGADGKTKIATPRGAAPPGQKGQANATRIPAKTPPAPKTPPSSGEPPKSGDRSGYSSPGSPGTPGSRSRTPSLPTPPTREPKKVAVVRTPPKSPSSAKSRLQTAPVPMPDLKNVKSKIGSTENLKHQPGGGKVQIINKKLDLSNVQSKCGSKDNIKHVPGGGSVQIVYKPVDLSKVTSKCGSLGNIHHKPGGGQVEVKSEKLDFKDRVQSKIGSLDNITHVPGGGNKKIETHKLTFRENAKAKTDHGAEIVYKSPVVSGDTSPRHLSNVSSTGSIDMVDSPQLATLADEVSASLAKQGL

HT-22 [7] = test: Neuroprotective activity against IAA-induced ischemia in mouse HT22 cells assessed as increase in cell viability cotreated with IAA for 2 hrs followed by IAA wash out measured after 24 hrs by MTT assay; type: functional, cell-based
BV-2 = test: Antiinflammatory activity in mouse BV2 cells assessed as inhibition of LPS-induced microglial activation after 24 hrs by Griess reagent based assay; type: functional, cell-based; conditions: BV-2, 24 h
[8] = target: T1, Amyloid-beta precursor protein; test: Inhibition of amyloid beta 42 (unknown origin) expressed in Escherichia coli BL21 (DE3) aggregation at 100 uM incubated for overnight by Th-S fluorescence staining based UV-Vis spectrophotometer (reference value: 0 +/- 4.4%)
HT-22 [9] = test: Neurotoxicity against mouse HT22 cells assessed as decrease in cell viability at 10 uM measured after 24 hrs by MTT assay; type: toxicity, cell-based; conditions: ht-22, 24 h
[10] = target: T2, Microtubule-associated protein tau; test: Inhibition of tau (unknown origin) aggregation expressed in Escherichia coli (DE3) incubated for overnight by Th-S fluorescence staining based UV-Vis spectrophotometer
PC-12 = test: Induction of rat PC12 cells differentiation assessed as neurite outgrowth at 10 uM after 24 hrs relative to control; type: functional
[11] = target: T2, Microtubule-associated protein tau; test: Inhibition of tau (unknown origin) aggregation expressed in Escherichia coli (DE3) at 10 uM incubated for overnight by Th-S fluorescence staining based UV-Vis spectrophotometer (reference value: 0.0 +/- 1.4%)
[12] = target: T1, Amyloid-beta precursor protein; test: Inhibition of amyloid beta 42 (unknown origin) expressed in Escherichia coli BL21 (DE3) aggregation at 10 uM incubated for overnight by Th-S fluorescence staining based UV-Vis spectrophotometer (reference value: 0 +/- 1%)
[13] = Antioxidant activity assessed as reduction of Fe3+-TPTZ to Fe2+-TPTZ using equimolar mixture of test compound and silibinin measured every 15 secs for 4 mins by FRAP assay; type: functional
HT-22 [14] = test: Neurotoxicity against mouse HT22 cells assessed as decrease in cell viability at 25 uM using 1:1 test compound to silibinin ratio measured after 24 hrs by MTT assay; type: toxicity, cell-based; conditions: ht-22, 24 h
HT-22 [15] = test: Neuroprotective activity against glutamate-induced mouse HT22 cells assessed as increase in cell survival at 25 to 50 uM cotreated with glutamate measured after 24 hrs by MTT assay; type: functional, cell-based
[16] = Drug metabolism in human pooled plasma assessed as cleavage of ester bond at 50 uM up to 24 hrs by LCMS analysis; type: ADME, cell-free
HT-22 [17] = test: Neuroprotective activity against glutamate-induced mouse HT22 cells assessed as cell survival at 10 to 25 uM cotreated with glutamate measured after 24 hrs by MTT assay relative to control; type: functional
[18] = Stability of the compound in assay medium at 50 uM by LCMS analysis; type: physicochemical; conditions: TDE = time-dependent effect
[19] = Drug metabolism in human pooled plasma assessed as 7-Oferuloyl-2,3-dehydrosilibinin formation at 50 uM up to 24 hrs by LCMS analysis; type: ADME, cell-free
[20] = Stability of the compound in assay medium at 50 uM after 24 hrs by LCMS analysis; type: physicochemical; conditions: read-out: Stability
[21] = Half life in human pooled plasma at 50 uM up to 24 hrs by LCMS analysis; type: ADME, cell-free
[22] = Metabolic stability of the compound in human pooled plasma assessed as compound remaining at 50 uM after 4 hrs by LCMS analysis; type: ADME, cell-free; conditions: read-out: Stability
[23] = Metabolic stability of the compound in human pooled plasma at 50 uM by LCMS analysis; type: ADME, cell-free; conditions: TDE = time-dependent effect
HT-22 [24] = test: Neurotoxicity against mouse HT22 cells assessed as decrease in cell viability at 25 uM measured after 24 hrs by MTT assay; type: toxicity, cell-based; conditions: ht-22, 24 h

Work on O=C1O[C@H]([C@@H](O)CO)C(O)=C1O yielded an Activity [1] of 2 equiv.
Cc1c(C)c2c(c(C)c1O)CCC(C)(C(=O)O)O2 (stereo not drawn) gave an Activity [1] of 1.8 equiv.
With COc1cc(C2Oc3cc([C@H]4Oc5cc(OC(=O)c6ccc7c(c6)OC(C)(C)O7)cc(O)c5C(=O)[C@@H]4O)ccc3OC2CO)ccc1O (stereo partly drawn) the Activity [2] was “inactive”, the Activity (HT-22 [3]) was “Active” and the Activity (HT-22 [4]) was “inactive”.
In the case of COc1cc(/C=C/C(=O)Oc2cc(O)c3c(c2)O[C@H](c2ccc4c(c2)O[C@@H](c2ccc(O)c(OC)c2)[C@H](CO)O4)[C@@H](O)C3=O)ccc1O, the IC50 [5] is reported as 43.6 µM, the inhibition [6] is reported as 84% and the Activity [2] is reported as “Active”. It also gave an EC50 (HT-22 [7]) of 2.2 µM, an EC50 (BV-2) of 10.1 µM and an inhibition [8] of 73%. The Activity (HT-22 [9]) was “Toxic”, the IC50 [10] was 12.9 µM and the Activity (HT-22 [3]) was “Active”. The Activity (PC-12) was 67%, the inhibition [11] was 44.5% and the inhibition [12] was 14.2%.
With O=C(O)/C=C/c1ccccc1 [CINNAMIC ACID] the Activity [13] was “Active”, the Activity (HT-22 [14]) was “Toxic” and the Activity [2] was “inactive”. The EC50 (HT-22 [7]) was greater than 10 µM, the EC50 (BV-2) was greater than 10 µM and the Activity (PC-12) was “inactive”.
In the case of COc1cc(C2Oc3cc([C@H]4Oc5cc(OC(=O)CCc6cc(OC)c(O)c(OC)c6)cc(O)c5C(=O)[C@@H]4O)ccc3OC2CO)ccc1O (stereo partly drawn), the Activity [2] is reported as “Active” and the Activity (HT-22 [15]) is reported as “inactive”.
In the case of COc1cc(C2Oc3cc([C@H]4Oc5cc(OC(=O)c6cc(OC)c(O)c(OC)c6)cc(O)c5C(=O)[C@@H]4O)ccc3OC2CO)ccc1O (stereo partly drawn), the Activity [2] is reported as “Active” and the Activity (HT-22 [4]) is reported as “Active”.
For COc1cc(C2Oc3cc([C@H]4Oc5cc(O)cc(O)c5C(=O)[C@@H]4O)ccc3OC2COC(=O)/C=C/c2ccccc2)ccc1O (stereo partly drawn), the Activity (HT-22 [3]) was “inactive” and the Activity (HT-22 [4]) was “Active”.
With COc1cc(CCC(=O)Oc2cc(O)c3c(c2)O[C@H](c2ccc4c(c2)OC(c2ccc(O)c(OC)c2)C(CO)O4)[C@@H](O)C3=O)ccc1O (stereo partly drawn) the Activity [2] was “Active” and the Activity (HT-22 [15]) was “inactive”.
For COc1cc(/C=C/C(=O)Oc2cc(O)c3c(c2)O[C@H](c2ccc4c(c2)OC(c2ccc(O)c(OC)c2)C(CO)O4)[C@@H](O)C3=O)ccc1O (stereo partly drawn), the Drug metabolism [16] was “Metabolite_Detected”, the Survival (HT-22 [17]) was 50% and the Stability [18] was “Tde”. The Drug metabolism [19] was “Metabolite_Notdetected”, the remaining at 24 h, 50 µM [20] was 25% and the inhibition [6] was 64.7%. For the same compound, the half-life at 50 µM [21] was 1.5 h, the Activity [2] was “Active” and the EC50 (HT-22 [7]) was greater than 10 µM. For the same compound, the EC50 (BV-2) was 6.5 µM, the inhibition [8] was 54.4% and the remaining at 4 h, 50 µM [22] was 20%. For the same compound, the Stability [23] was “Tde”, the Activity (HT-22 [24]) was “Toxic” and the Activity (PC-12) was 47%. For the same compound, the inhibition [11] was 30.4% and the inhibition [12] was 16.8%.
